Key:
[1] = system: Bx-PC3 pancreatic cancer cells; format: cell-based; conditions: metformin in combination with low glucose, 24, 48 and 72 hrs
[2] = Blood glucose levels in tumor-bearing mice; conditions: metformin 200 mg/kg oral gavage
Excerpt: (B-D) The levels of blood glucose measured at the end of each feeding/fasting cycle in different experimental groups. […] Error bars indicate SEM. (n=5 per group).
To this end, mice bearing HCT116 xenografts were distributed into five groups as schematized in FIG. 13; the first two groups were kept on ad libitum feeding while the three other groups were subjected to 24-hour cycles of feeding-fasting. Fasting in those groups was achieved by complete withdrawal of food while allowing free access to water. […] The first of those three groups (Fed/Fast group) received vehicle every 48h to assess the effect of fasting-feeding cycles alone on tumor growth. […] Tumor growth was monitored in all groups.

[3] = system: PDX models (patient-derived xenografts) from melanoma patients; assay: In vivo growth of melanoma PDX models; set-up: species or system mice; conditions: metformin-intermittent fasting combination
Experimental: CD1 nude mice received single subcutaneous flank injections of 5×10^6 HCT-116 cells or 1×10^5 patient-derived melanoma cells suspended in 200 μl saline. After the tumors were established, mice were randomized in different groups. Mice were kept on the feeding/fasting protocols described. […] Tumor growth was monitored by bi-dimensional measurements using a caliper. Experiments have been done in accordance with the Italian Laws (D.L.vo 116/92 and following additions), which enforces EU 86/609 Directive (Council Directive 86/609/EEC of 24 Nov. 1986 on the approximation of laws, regulations and administrative provisions of the Member States regarding the protection of animals used for experimental and other scientific purposes). Mice have been housed accordingly to the guidelines set out in Commission Recommendation 2007/526/EC—Jun. 18, 2007 on guidelines for the accommodation and care of animals used for experimental and other scientific purposes. Note that nude mice show a strain-specific decline in glucose levels upon fasting, of a higher degree as compared to other commonly used mouse strains (C57B6).

[4] = system: yeast cells undergoing chronological aging; assay: Chronological lifespan (CLS) with UV: DDR, NER, viability; format: cell-based, S. cerevisiae; conditions: UV 40 J/m^2; rapamycin 2 ng/ml or metformin 80 mM
Experimental: Both drugs were supplemented at the initial overnight culture stage (Day 0), prior to cells entering stationary phase. In experiments including rapamycin-treated cultures, DMSO (0.04%) was used in the untreated cultures. For each chronological aging experiment, cells were set up in synthetic complete medium (SDC) and allowed to grow overnight at 28° C. to reach exponentially growing conditions the next day (day 1) until the end of kinetics (day 10/11 for DDR and NER analysis, day 21-28 for viability). At each examined day, small aliquots of cells were removed, exposed to 40 J/m^2 and further incubated in their exhausted medium. Samples were taken at untreated (prior to UV), 0 and 2 hours (for protein extraction) or 0, 6 and 24 hours (for genomic DNA extraction) after UV treatment.
PP2A targets: Gln3-myc, Npr1-myc, Nnk1-myc were all separated on NuPage precast 3-8% SDS gels. PonceauS staining was used as a loading control.
Cells were fixed in one volume of ice-cold 100% ethanol and incubated on ice for 5′. Genomic DNAs were then prepared following standard procedure. Equal amounts of DNA were loaded on 0.8% agarose gel, transferred by Southern blot onto nitrocellulose membrane (Amersham Protran 0.45μ) and cross-linked by baking 1 hour at 80° C.
Lifespan Viability Assays were Carried as Follows: Aliquots of Cells were Removed Throughout the CLS kinetics, serially diluted and spotted on YPD plates. The plates were then exposed to 40 J/m^2 (or 20 J/m^2 in some cases), incubated at 25° C. and scanned after 3 days. In FIGS. 33, 34 and 36 individual spot assay rows were cut out for space reasons, but the compared strains were always from the same plates.

CN(C)C(=N)NC(=N)N.Cl [metformin]
sensitization by RAD51 knockdown [1]: dramatically sensitizes | blood glucose levels [2]: reduced blood glucose levels but to a much less extent than that induced by fasting | tumor growth in PDX models [3]: also works on PDX models of tumor | DDR, NER and lifespan during chronological aging [4]: improve DDR and promote longevity but not NER

— US20200164047A1, “THERAPY AND DIAGNOSIS OF DISEASE CHARACTERIZED BY ALTERATIONS IN THE DNA DAMAGE RESPONSE” (UNIVERSITÀ DEGLI STUDI DI MILANO, priority 2017, published 2020)
